Numbers after ± are expanded uncertainties.
Assay: activity coefficient (dimensionless); of the first substance listed, at infinite dilution; xn = mol fraction of the nth substance listed
Details: 101 kPa, Liquid, Chromatography, x1 = 0

Row | SMILES | activity coefficient (322.6 K) | activity coefficient (332.5 K) | activity coefficient (342.8 K) | activity coefficient (323 K) | activity coefficient (333 K) | activity coefficient (343.1 K) | activity coefficient (322.9 K)
1 | CC1CCCC1 [methylcyclopentane] + CCCCCCCCCC[N+]1(C)CCCC1.O=S(=O)([N-]S(=O)(=O)C(F)(F)F)C(F)(F)F | 2.9 ± 0.3 | 2.76 ± 0.29 | 2.66 ± 0.28 |  |  |  | 
2 | CC1CCCC1 [methylcyclopentane] + CCCCCCCC[N+]1(C)CCCC1.O=S(=O)([N-]S(=O)(=O)C(F)(F)F)C(F)(F)F |  |  |  | 3.13 ± 0.33 | 3.36 ± 0.35 | 2.84 ± 0.3 | 
3 | CC1CCCC1 [methylcyclopentane] + CCCCCC[N+]1(C)CCCC1.O=S(=O)([N-]S(=O)(=O)C(F)(F)F)C(F)(F)F |  |  |  |  | 4.52 ± 0.47 | 4.76 ± 0.5 | 4.9 ± 0.51
4 | C[N+](=O)[O-] [nitromethane] + CCCCCCCCCC[N+]1(C)CCCC1.O=S(=O)([N-]S(=O)(=O)C(F)(F)F)C(F)(F)F | 0.63 ± 0.07 | 0.62 ± 0.07 | 0.6 ± 0.06 |  |  |  | 
5 | C[N+](=O)[O-] [nitromethane] + CCCCCCCC[N+]1(C)CCCC1.O=S(=O)([N-]S(=O)(=O)C(F)(F)F)C(F)(F)F |  |  |  | 0.54 ± 0.06 | 0.51 ± 0.06 | 0.48 ± 0.05 | 
6 | C[N+](=O)[O-] [nitromethane] + CCCCCC[N+]1(C)CCCC1.O=S(=O)([N-]S(=O)(=O)C(F)(F)F)C(F)(F)F |  |  |  |  | 0.57 ± 0.06 | 0.56 ± 0.06 | 0.57 ± 0.06
7 | CCCCCCCCC [nonane] + CCCCCCCCCC[N+]1(C)CCCC1.O=S(=O)([N-]S(=O)(=O)C(F)(F)F)C(F)(F)F | 8.32 ± 0.87 | 8.01 ± 0.84 | 7.65 ± 0.8 |  |  |  | 
8 | CCCCCCCCC [nonane] + CCCCCCCC[N+]1(C)CCCC1.O=S(=O)([N-]S(=O)(=O)C(F)(F)F)C(F)(F)F |  |  |  | 11.3 ± 0.67 | 10.7 ± 0.64 | 9.14 ± 0.55 | 
9 | CCCCCCCCC [nonane] + CCCCCC[N+]1(C)CCCC1.O=S(=O)([N-]S(=O)(=O)C(F)(F)F)C(F)(F)F |  |  |  |  | 18.2 ± 1.9 | 18.5 ± 1.9 | 21.1 ± 2.2
10 | CCCCCCCC [octane] + CCCCCCCCCC[N+]1(C)CCCC1.O=S(=O)([N-]S(=O)(=O)C(F)(F)F)C(F)(F)F | 6.13 ± 0.64 | 5.92 ± 0.62 | 5.76 ± 0.61 |  |  |  | 
11 | CCCCCCCC [octane] + CCCCCCCC[N+]1(C)CCCC1.O=S(=O)([N-]S(=O)(=O)C(F)(F)F)C(F)(F)F |  |  |  | 8.1 ± 0.85 | 7.8 ± 0.82 | 6.54 ± 0.69 | 
12 | CCCCCCCC [octane] + CCCCCC[N+]1(C)CCCC1.O=S(=O)([N-]S(=O)(=O)C(F)(F)F)C(F)(F)F |  |  |  |  | 13.4 ± 1.4 | 12.9 ± 1.4 | 14.2 ± 1.5
13 | CCCC(C)=O [pentan-2-one] + CCCCCCCCCC[N+]1(C)CCCC1.O=S(=O)([N-]S(=O)(=O)C(F)(F)F)C(F)(F)F | 0.52 ± 0.06 | 0.53 ± 0.06 | 0.54 ± 0.06 |  |  |  | 
14 | CCCC(C)=O [pentan-2-one] + CCCCCCCC[N+]1(C)CCCC1.O=S(=O)([N-]S(=O)(=O)C(F)(F)F)C(F)(F)F |  |  |  | 0.49 ± 0.05 | 0.51 ± 0.06 | 0.48 ± 0.05 | 
15 | CCCC(C)=O [pentan-2-one] + CCCCCC[N+]1(C)CCCC1.O=S(=O)([N-]S(=O)(=O)C(F)(F)F)C(F)(F)F |  |  |  |  | 0.65 ± 0.07 | 0.66 ± 0.07 | 0.59 ± 0.06
16 | CCC(=O)CC [pentan-3-one] + CCCCCCCCCC[N+]1(C)CCCC1.O=S(=O)([N-]S(=O)(=O)C(F)(F)F)C(F)(F)F | 0.47 ± 0.05 | 0.48 ± 0.05 | 0.5 ± 0.06 |  |  |  | 
17 | CCC(=O)CC [pentan-3-one] + CCCCCCCC[N+]1(C)CCCC1.O=S(=O)([N-]S(=O)(=O)C(F)(F)F)C(F)(F)F |  |  |  | 0.45 ± 0.05 | 0.47 ± 0.05 | 0.44 ± 0.05 | 
18 | CCC(=O)CC [pentan-3-one] + CCCCCC[N+]1(C)CCCC1.O=S(=O)([N-]S(=O)(=O)C(F)(F)F)C(F)(F)F |  |  |  |  | 0.6 ± 0.06 | 0.62 ± 0.07 | 0.47 ± 0.05
19 | CCCO [propan-1-ol] + CCCCCCCCCC[N+]1(C)CCCC1.O=S(=O)([N-]S(=O)(=O)C(F)(F)F)C(F)(F)F | 1.62 ± 0.17 | 1.47 ± 0.15 | 1.32 ± 0.14 |  |  |  | 
20 | CCCO [propan-1-ol] + CCCCCCCC[N+]1(C)CCCC1.O=S(=O)([N-]S(=O)(=O)C(F)(F)F)C(F)(F)F |  |  |  | 1.49 ± 0.15 | 1.29 ± 0.13 | 1.14 ± 0.12 | 
21 | CCCO [propan-1-ol] + CCCCCC[N+]1(C)CCCC1.O=S(=O)([N-]S(=O)(=O)C(F)(F)F)C(F)(F)F |  |  |  |  | 1.64 ± 0.17 | 1.49 ± 0.15 | 1.72 ± 0.18

Row | SMILES | activity coefficient (322.6 K) | activity coefficient (332.5 K) | activity coefficient (342.8 K) | activity coefficient (323 K) | activity coefficient (333 K) | activity coefficient (343.1 K) | activity coefficient (322.9 K)
22 | CC(C)O [propan-2-ol] + CCCCCCCCCC[N+]1(C)CCCC1.O=S(=O)([N-]S(=O)(=O)C(F)(F)F)C(F)(F)F | 1.52 ± 0.16 | 1.38 ± 0.14 | 1.25 ± 0.13 |  |  |  | 
23 | CC(C)O [propan-2-ol] + CCCCCCCC[N+]1(C)CCCC1.O=S(=O)([N-]S(=O)(=O)C(F)(F)F)C(F)(F)F |  |  |  | 1.4 ± 0.14 | 1.27 ± 0.13 | 1.06 ± 0.11 | 
24 | CC(C)O [propan-2-ol] + CCCCCC[N+]1(C)CCCC1.O=S(=O)([N-]S(=O)(=O)C(F)(F)F)C(F)(F)F |  |  |  |  | 1.53 ± 0.16 | 1.4 ± 0.14 | 
25 | c1ccncc1 [pyridine] + CCCCCCCCCC[N+]1(C)CCCC1.O=S(=O)([N-]S(=O)(=O)C(F)(F)F)C(F)(F)F | 0.47 ± 0.05 | 0.47 ± 0.05 | 0.47 ± 0.05 |  |  |  | 
26 | c1ccncc1 [pyridine] + CCCCCCCC[N+]1(C)CCCC1.O=S(=O)([N-]S(=O)(=O)C(F)(F)F)C(F)(F)F |  |  |  | 0.42 ± 0.05 | 0.39 ± 0.05 | 0.41 ± 0.05 | 
27 | c1ccncc1 [pyridine] + CCCCCC[N+]1(C)CCCC1.O=S(=O)([N-]S(=O)(=O)C(F)(F)F)C(F)(F)F |  |  |  |  | 0.52 ± 0.06 | 0.53 ± 0.06 | 0.52 ± 0.06
28 | ClC(Cl)(Cl)Cl [tetrachloromethane] + CCCCCCCCCC[N+]1(C)CCCC1.O=S(=O)([N-]S(=O)(=O)C(F)(F)F)C(F)(F)F | 1.32 ± 0.14 | 1.12 ± 0.11 | 1.31 ± 0.13 |  |  |  | 
29 | ClC(Cl)(Cl)Cl [tetrachloromethane] + CCCCCCCC[N+]1(C)CCCC1.O=S(=O)([N-]S(=O)(=O)C(F)(F)F)C(F)(F)F |  |  |  | 1.39 ± 0.14 | 1.3 ± 0.13 | 1.15 ± 0.12 | 
30 | ClC(Cl)(Cl)Cl [tetrachloromethane] + CCCCCC[N+]1(C)CCCC1.O=S(=O)([N-]S(=O)(=O)C(F)(F)F)C(F)(F)F |  |  |  |  | 1.85 ± 0.19 | 1.86 ± 0.19 | 1.78 ± 0.19
31 | c1ccsc1 [thiophene] + CCCCCCCCCC[N+]1(C)CCCC1.O=S(=O)([N-]S(=O)(=O)C(F)(F)F)C(F)(F)F | 0.6 ± 0.06 | 0.6 ± 0.06 | 0.61 ± 0.07 |  |  |  | 
32 | c1ccsc1 [thiophene] + CCCCCCCC[N+]1(C)CCCC1.O=S(=O)([N-]S(=O)(=O)C(F)(F)F)C(F)(F)F |  |  |  | 0.57 ± 0.06 | 0.55 ± 0.06 | 0.53 ± 0.06 | 
33 | c1ccsc1 [thiophene] + CCCCCC[N+]1(C)CCCC1.O=S(=O)([N-]S(=O)(=O)C(F)(F)F)C(F)(F)F |  |  |  |  | 0.71 ± 0.07 | 0.72 ± 0.08 | 0.7 ± 0.07
34 | Cc1ccccc1 [toluene] + CCCCCCCCCC[N+]1(C)CCCC1.O=S(=O)([N-]S(=O)(=O)C(F)(F)F)C(F)(F)F | 0.77 ± 0.08 | 0.78 ± 0.08 | 0.8 ± 0.08 |  |  |  | 
35 | Cc1ccccc1 [toluene] + CCCCCCCC[N+]1(C)CCCC1.O=S(=O)([N-]S(=O)(=O)C(F)(F)F)C(F)(F)F |  |  |  | 0.76 ± 0.08 | 0.78 ± 0.08 | 0.74 ± 0.08 | 
36 | Cc1ccccc1 [toluene] + CCCCCC[N+]1(C)CCCC1.O=S(=O)([N-]S(=O)(=O)C(F)(F)F)C(F)(F)F |  |  |  |  | 1.01 ± 0.1 | 1.04 ± 0.11 | 1 ± 0.1
37 | ClC(Cl)Cl [trichloromethane] + CCCCCCCCCC[N+]1(C)CCCC1.O=S(=O)([N-]S(=O)(=O)C(F)(F)F)C(F)(F)F | 0.39 ± 0.05 | 0.39 ± 0.05 | 0.41 ± 0.05 |  |  |  | 
38 | ClC(Cl)Cl [trichloromethane] + CCCCCCCC[N+]1(C)CCCC1.O=S(=O)([N-]S(=O)(=O)C(F)(F)F)C(F)(F)F |  |  |  | 0.56 ± 0.06 | 0.58 ± 0.06 | 0.53 ± 0.06 | 
39 | ClC(Cl)Cl [trichloromethane] + CCCCCC[N+]1(C)CCCC1.O=S(=O)([N-]S(=O)(=O)C(F)(F)F)C(F)(F)F |  |  |  |  | 0.72 ± 0.08 | 0.74 ± 0.08 | 0.68 ± 0.07
40 | CCCCCCCCCCC [undecane] + CCCCCCCCCC[N+]1(C)CCCC1.O=S(=O)([N-]S(=O)(=O)C(F)(F)F)C(F)(F)F | 11.7 ± 1.2 | 11.2 ± 1.2 | 10.7 ± 1.1 |  |  |  | 
41 | CCCCCCCCCCC [undecane] + CCCCCCCC[N+]1(C)CCCC1.O=S(=O)([N-]S(=O)(=O)C(F)(F)F)C(F)(F)F |  |  |  | 16.8 ± 1.8 | 15.6 ± 1.6 | 14.6 ± 1.5 | 
42 | CCCCCCCCCCC [undecane] + CCCCCC[N+]1(C)CCCC1.O=S(=O)([N-]S(=O)(=O)C(F)(F)F)C(F)(F)F |  |  |  |  | 31 ± 3.3 | 30.1 ± 3.2 | 34.4 ± 3.6

— the NIST ThermoML archive (doi:10.1021/je300692s)
